Here are results for 13 compounds from US6670189B2, “Fumonisin detoxification compositions and methods” (priority 1994, dated 2003).

Some results are limits rather than exact numbers.

The nature of series [1]: Hydrolysis of fumonisin B1 by commercial esterases and hydrolases. It is filed as biochemical. Also on record: key: − = no hydrolysis; ± = trace amount of hydrolysis; + = incomplete hydrolysis; ++ = incomplete hydrolysis; +++ = complete hydrolysis. The following applies: assay pH 8.0; overnight at 37° C. with 1 mg/ml fumonisin. The method, then:
(§1) Analytical thin-layer chromatography was carried out on 100% silanized C18 silica plates (Sigma #T-7020; 10×10 cm; 0.1 mm thick) by a modification of the published method of Rottinghaus (Rottinghaus, G. E., Coatney, C. E., and Minor, H. C., A rapid, sensitive thin layer chromatography procedure for the detection of fumonisin b-1 and b-2, J Vet Diagn Invest, 4, 326 (1992), and herein incorporated by reference).
(§2) Sample lanes were pre-wet with methanol to facilitate sample application. After application of from 0.1 to 2 μl of aqueous sample, the plates were air-dried and developed in MeOH:4% KCl (3:2) or MeOH:0.2 M KOH (3:2) and then sprayed successively with 0.1 M sodium borate (pH 9.5) and fluorescamine (0.4 mg/ml in acetonitrile). Plates were air-dried and viewed under long wave UV.
The fumonisin esterase isolated from E. spinifera and R. atrovirens was compared with other known esterases from various sources as supplied by commercial vendors.

Another series has as its system FB1 Hydrolase activity. In words: Effect of various treatments on modification of FB1 by E. spinifera esterase (culture filtrates). Format: biochemical, Exophiala spinifera. Also on record: key: − = no hydrolysis; ± = trace amount of hydrolysis; + = incomplete hydrolysis; ++ = incomplete hydrolysis; +++ = complete hydrolysis. The conditions noted are these: then incubated with FB1 overnight at 37° C. The method, then: as §1, §2
The esterase isolated from E. spinifera was then subjected to other treatments, including proteases, to determine whether and how the enzyme would function in various environments.

Another series deals with Lemna tissues. The conditions noted are these: Vesonder et al. 1992; cited from earlier work.
Another series relates to maize coleoptiles. In words: Effect of FB1 and AP1 on maize coleoptiles. Also noted: key to Injury of maize coleoptiles: + = brown necrotic discoloration of coleoptile; − = no symptoms (same as water control). The conditions noted are these: for Injury of maize coleoptiles: 2 days dark at 28° C. then 3 days light. Here is the method: Maize coleoptiles from 4 day dark-grown germinated maize seeds were excised above the growing point and placed in 96-well microtiter plates in the presence of 60 microliters of sterile distilled water containing FB1 or AP1 at approximately equimolar concentrations of 1.5, 0.5, 0.15, 0.05, 0.015, 0.005, 0.0015, or 0.0005 millimolar, along with water controls. After 2 days in the dark at 28° C. the coleoptiles were placed in the light and incubated another 3 days.

The next series has as its system AP1 catabolase. In words: AP1 catabolase activity: modification of amine-containing substrates by crude cell-free extract. The following applies: for modification by the crude extract (catabolase): cell-free extract of substrate-induced Exophiala spinifera, TLC on C18 silica. It is filed as biochemical, Exophiala spinifera. The method, then:
A cell-free extract that contains the catabolase activity was obtained by subjecting substrate-induced Exophiala spinifera cells to disruption using a bead beater in sodium acetate buffer, pH 5.2, and recovering the cell-free supernatant by centrifugation and 0.45 micron filtration. Catabolic activity is assayed by incubating extracts with AP1 (hydrolyzed fumonisin B1 backbone) or 14C-labelled AP1 with the extract and evaluating by TLC on C18 silica. The product AP1-N1 has a lower Rf than AP1 and is detected either by radiolabel scan or by H2SO4 spray/charring of the TLC plate. […] Other amine-containing substrates were tested for modification by the crude extract.

For a further series, the system named is tomato. The following applies: Lamprecht et al. 1994; cited from earlier work.
Series [2] has as its system maize tissue cultured cells (Black Mexican Sweet, BMS). The conditions noted are these: for concentration at which growth of BMS cells was inhibited: liquid culture, 96-well plates, 1 week, cell density versus water control.
In a further series the test system is maize callus. The conditions noted are these: solid medium; Van Asch et al. 1992; cited from earlier work.
Where [3] appears, read: treatment 0.01 mg/ml, 16 hr, 37° C., pH 5.2.

As for “Cholinesterase, butyryl: EC 3.1.1.8, Horse serum, highly purified”, in series [1], the FB1 hydrolysis result is “−”.
Turning to `O=S(=O)(F)Cc1ccccc1` [PMSF, Phenylmethyl sulfonyl fluoride], the “FB1 Hydrolase activity” value in the series on FB1 Hydrolase activity (treatment 10 mM) is “+++”.
For `[Mg+2]` [Mg^++], in the series with FB1 Hydrolase activity (treatment 50 mM), the “FB1 Hydrolase activity” value is given as “+++”.
Turning to `CCCC[C@@H](C)[C@@H](O)[C@@H](O)C[C@@H](C)C[C@H](O)CCCC[C@@H](O)C[C@H](O)[C@H](C)N` [AP1], the “AP1 less toxic (than FB1) in Lemna tissues” value in the series on Lemna tissues was “approx. 40 fold”. Also, the “Injury of maize coleoptiles” value was “+” with maize coleoptiles (1.5 mM); “−” in the series on maize coleoptiles (.0005 mM); “−” in the series with maize coleoptiles (.0015 mM); “−” in the series with maize coleoptiles (.005 mM); “−” with maize coleoptiles (.015 mM); “−” in the series on maize coleoptiles (.05 mM). For the same compound, the “Injury of maize coleoptiles” value with maize coleoptiles (.15 mM) and with maize coleoptiles (.5 mM) was “−” in each case. Also, the “difference in toxicity between FB1 and AP1 to maize coleoptiles” value with maize coleoptiles (AP1 less toxic than FB1) is on record as ≥ 30 fold. The “time to complete conversion to AP1-N1” value in the series on AP1 catabolase (pH 9) came out at 30 min. In addition, the “reduction in toxicity to tomato by AP1 versus FB1” value in the series on tomato is ~100 fold. Further, the “difference in toxicity (FB1 versus AP1) to maize tissue cultured cells” value in series [2] is ~100 fold. Moreover, the “concentration at which growth of BMS cells was inhibited” value in series [2] was 40000 nM.
On to `O[C@@H](CS)[C@@H](O)CS` [DTT], for which the “FB1 Hydrolase activity” value with FB1 Hydrolase activity (treatment 25 mM) was “+++”.
As for `[Ca+2]` [Ca^++], the “FB1 Hydrolase activity” value in the series on FB1 Hydrolase activity (treatment 50 mM) was “+++”.
On to `CCCCCCCCCCCCCC[C@@H](O)[C@@H](O)[C@@H](N)CO` [Phytosphingosine], for which, in the series with AP1 catabolase, the “modification by the crude extract (catabolase)” value (from here on “modification”) is “apparently not modified”.
With `O=C(O)CN(CCN(CC(=O)O)CC(=O)O)CC(=O)O` [EDTA], in the series with FB1 Hydrolase activity (treatment 50 mM), the “FB1 Hydrolase activity” value was “++”.
Regarding `CCCCCCCCCCCCC/C=C/[C@@H](O)[C@@H](N)CO` [Sphingosine], in the series with AP1 catabolase, the “modification” value was “apparently not modified”.
Same read-out and setting: for `CCCCCCCCCCCCCCC[C@@H](O)[C@@H](N)CO` [sphinganine] the value was “apparently not modified”.
Turning to `CCCC[C@@H](C)[C@@H](OC(=O)C[C@@H](CC(=O)O)C(=O)O)[C@H](C[C@@H](C)C[C@H](O)CCCC[C@@H](O)C[C@H](O)[C@H](C)N)OC(=O)C[C@@H](CC(=O)O)C(=O)O` [FB1, Fumonisin B1], the “Injury of maize coleoptiles” value is on record as “+” with maize coleoptiles (1.5 mM); “−” in the series with maize coleoptiles (.0005 mM); “−” in the series with maize coleoptiles (.0015 mM); “−” in the series with maize coleoptiles (.005 mM); “+” in the series with maize coleoptiles (.05 mM); “+” in the series with maize coleoptiles (.15 mM). Further, in the series on maize coleoptiles (.5 mM), the “Injury of maize coleoptiles” value is on record as “+”. In the series with AP1 catabolase, the “modification” value is “not modified”. Besides, in the series on maize callus, the “concentration giving significant inhibition of maize callus” value was 1400 nM. In addition, the “concentration at which growth of BMS cells was inhibited” value in series [2] is 400 nM.
On to Chymotrypsin, for which, in the series with FB1 Hydrolase activity (setting [3]), the “FB1 Hydrolase activity” value is on record as “++”.
The same measure, in the same setting: for Trypsin the value was “+++”.
